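Assay format: 96-well plates, 48-hour exposure. TGI: concentration producing complete growth inhibition.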
Tests used:
Assay in all cases: NCI-60 cell line screen, 48 h
[1] = test system: SK-OV-3 ovarian
[2] = test system: M14 melanoma
[3] = test system: K-562 leukemia
[4] = test system: CCRF-CEM leukemia
[5] = test system: U251 CNS
[6] = test system: HS 578T breast
[7] = test system: OVCAR-3 ovarian
[8] = test system: NCI/ADR-RES ovarian
[9] = test system: SR leukemia
[10] = test system: EKVX NSCLC
[11] = test system: SK-MEL-2 melanoma
[12] = test system: NCI-H226 lung
[13] = test system: HCT-116 colon
[14] = test system: RXF 393 renal
[15] = test system: SK-MEL-28 melanoma
[16] = test system: MALME-3M melanoma
[17] = test system: NCI-H522 lung
[18] = test system: SN12C renal
[19] = test system: SF-295 CNS
[20] = test system: HCT-15 colon
[21] = test system: ACHN renal
[22] = test system: COLO 205 colon
[23] = test system: SW-620 colon
[24] = test system: CAKI-1 renal
[25] = test system: HOP-62 NSCLC
[26] = test system: SK-MEL-5 melanoma
[27] = test system: DU-145 prostate
[28] = test system: MDA-MB-435
[29] = test system: SNB-75 CNS
[30] = test system: UACC-257 melanoma
[31] = test system: UO-31 renal
[32] = test system: SF-268 CNS
[33] = test system: MOLT-4 leukemia
[34] = test system: HL-60(TB) leukemia
[35] = test system: SNB-19 CNS
[36] = test system: SF-539 CNS
[37] = test system: HOP-92 NSCLC
[38] = test system: MCF7 breast
[39] = test system: OVCAR-5 ovarian
[40] = test system: OVCAR-8 ovarian
[41] = test system: OVCAR-4 ovarian
[42] = test system: PC-3 prostate
[43] = test system: A549 NSCLC
[44] = test system: BT-549 breast
[45] = test system: T-47D breast
[46] = test system: HT29 colon
[47] = test system: 786-0 renal
[48] = test system: TK-10 renal
[49] = test system: LOX IMVI melanoma
[50] = test system: NCI-H23 lung
[51] = test system: RPMI-8226 leukemia
[52] = test system: KM12 colon
[53] = test system: HCC-2998 colon
[54] = test system: NCI-H460 lung
[55] = test system: A498 renal
[56] = test system: UACC-62 melanoma
[57] = test system: IGROV1 ovarian
[58] = test system: MDA-N
[59] = test system: MDA-MB-231 breast

Question: Which TGI [1] does the source give for CC(=O)CC1(O)C(=O)c2c(Br)sc(Br)c2C1=O here?
Answer: > 100 µM

Question: And the TGI [2]?
Answer: 33.1 µM

Question: What about the TGI [3] of the same compound?
Answer: 91 µM

Question: What about the TGI [4] of the same compound?
Answer: 43 µM

Question: What about the TGI [5] of the same compound?
Answer: 53.5 µM

Question: What about the TGI [6] of the same compound?
Answer: 95 µM

Question: And the TGI [7]?
Answer: 31.7 µM

Question: And the TGI [8]?
Answer: > 100 µM

Question: What about the TGI [9] of the same compound?
Answer: 49.9 µM

Question: What about the TGI [10] of the same compound?
Answer: 55.8 µM

Question: What about the TGI [11] of the same compound?
Answer: 46.7 µM

Question: What about the TGI [12] of the same compound?
Answer: > 100 µM

Question: What about the TGI [13] of the same compound?
Answer: 35.8 µM

Question: What about the TGI [14] of the same compound?
Answer: 51.7 µM

Question: And the TGI [15]?
Answer: 46 µM

Question: And the TGI [16]?
Answer: 33.2 µM

Question: What about the TGI [17] of the same compound?
Answer: 36.4 µM

Question: What about the TGI [18] of the same compound?
Answer: 35.4 µM

Question: What about the TGI [19] of the same compound?
Answer: > 100 µM

Question: And the TGI [20]?
Answer: 45.7 µM

Question: What about the TGI [21] of the same compound?
Answer: > 100 µM

Question: And the TGI [22]?
Answer: 36.9 µM

Question: What about the TGI [23] of the same compound?
Answer: 55.6 µM

Question: And the TGI [24]?
Answer: 32.1 µM

Question: What about the TGI [25] of the same compound?
Answer: 79.4 µM

Question: What about the TGI [26] of the same compound?
Answer: 34.2 µM

Question: What about the TGI [27] of the same compound?
Answer: > 100 µM

Question: And the TGI [28]?
Answer: 43.6 µM

Question: And the TGI [29]?
Answer: > 100 µM

Question: And the TGI [30]?
Answer: 41.4 µM

Question: What about the TGI [31] of the same compound?
Answer: 50.7 µM

Question: And the TGI [32]?
Answer: 82.4 µM

Question: What about the TGI [33] of the same compound?
Answer: > 100 µM

Question: What about the TGI [34] of the same compound?
Answer: 50.5 µM

Question: What about the TGI [35] of the same compound?
Answer: > 100 µM

Question: And the TGI [36]?
Answer: 49.3 µM

Question: What about the TGI [37] of the same compound?
Answer: 34.7 µM

Question: And the TGI [38]?
Answer: > 100 µM

Question: What about the TGI [39] of the same compound?
Answer: 33.9 µM

Question: What about the TGI [40] of the same compound?
Answer: 48 µM

Question: And the TGI [41]?
Answer: 36.4 µM

Question: What about the TGI [42] of the same compound?
Answer: 45.4 µM

Question: And the TGI [43]?
Answer: > 100 µM

Question: What about the TGI [44] of the same compound?
Answer: 35.8 µM

Question: And the TGI [45]?
Answer: 83.9 µM

Question: And the TGI [46]?
Answer: 53.8 µM

Question: And the TGI [47]?
Answer: 57.6 µM

Question: And the TGI [48]?
Answer: 56.8 µM

Question: And the TGI [49]?
Answer: 35 µM

Question: And the TGI [50]?
Answer: 39.2 µM

Question: What about the TGI [51] of the same compound?
Answer: > 100 µM

Question: And the TGI [52]?
Answer: > 100 µM

Question: What about the TGI [53] of the same compound?
Answer: 32.7 µM

Question: And the TGI [54]?
Answer: > 100 µM

Question: And the TGI [55]?
Answer: > 100 µM

Question: What about the TGI [56] of the same compound?
Answer: 46 µM

Question: What about the TGI [57] of the same compound?
Answer: 35.9 µM

Question: What about the TGI [58] of the same compound?
Answer: 45.9 µM

Question: How did the TGI [1] turn out when O=C(/C=C/c1ccc(OCc2ccccc2)c(OCc2ccccc2)c1)OCc1ccccc1 was run?
Answer: > 100 µM

Question: What about the TGI [2] of the same compound?
Answer: > 100 µM

Question: And the TGI [3]?
Answer: > 100 µM

Question: And the TGI [5]?
Answer: > 100 µM

Question: What about the TGI [7] of the same compound?
Answer: > 100 µM

Question: What about the TGI [8] of the same compound?
Answer: > 100 µM

Question: What about the TGI [9] of the same compound?
Answer: > 100 µM

Question: And the TGI [10]?
Answer: > 100 µM

Question: And the TGI [11]?
Answer: > 100 µM

Question: What about the TGI [12] of the same compound?
Answer: > 100 µM

Question: And the TGI [13]?
Answer: > 100 µM

Question: What about the TGI [14] of the same compound?
Answer: > 100 µM

Question: And the TGI [15]?
Answer: > 100 µM

Question: What about the TGI [16] of the same compound?
Answer: > 100 µM

Question: And the TGI [17]?
Answer: > 100 µM

Question: What about the TGI [18] of the same compound?
Answer: > 100 µM

Question: What about the TGI [19] of the same compound?
Answer: > 100 µM

Question: And the TGI [20]?
Answer: > 100 µM

Question: And the TGI [21]?
Answer: > 100 µM

Question: And the TGI [22]?
Answer: > 100 µM

Question: What about the TGI [23] of the same compound?
Answer: > 100 µM

Question: And the TGI [24]?
Answer: > 100 µM

Question: What about the TGI [25] of the same compound?
Answer: > 100 µM

Question: What about the TGI [26] of the same compound?
Answer: > 100 µM

Question: What about the TGI [27] of the same compound?
Answer: > 100 µM

Question: What about the TGI [59] of the same compound?
Answer: > 100 µM

Question: What about the TGI [28] of the same compound?
Answer: > 100 µM

Question: What about the TGI [29] of the same compound?
Answer: > 100 µM

Question: What about the TGI [30] of the same compound?
Answer: > 100 µM

Question: And the TGI [31]?
Answer: > 100 µM

Question: What about the TGI [32] of the same compound?
Answer: > 100 µM

Question: And the TGI [33]?
Answer: > 100 µM

Question: And the TGI [34]?
Answer: > 100 µM

Question: What about the TGI [35] of the same compound?
Answer: > 100 µM

Question: And the TGI [36]?
Answer: > 100 µM

Question: And the TGI [37]?
Answer: > 100 µM

Question: And the TGI [38]?
Answer: > 100 µM

Question: What about the TGI [39] of the same compound?
Answer: > 100 µM

Question: What about the TGI [40] of the same compound?
Answer: > 100 µM

Question: And the TGI [41]?
Answer: > 100 µM

Question: And the TGI [42]?
Answer: > 100 µM

Question: What about the TGI [43] of the same compound?
Answer: > 100 µM

Question: What about the TGI [44] of the same compound?
Answer: > 100 µM

Question: And the TGI [45]?
Answer: > 100 µM

Question: And the TGI [46]?
Answer: > 100 µM

Question: What about the TGI [47] of the same compound?
Answer: > 100 µM

Question: What about the TGI [48] of the same compound?
Answer: > 100 µM

Question: And the TGI [49]?
Answer: > 100 µM

Question: And the TGI [50]?
Answer: > 100 µM

Question: And the TGI [51]?
Answer: > 100 µM

Question: And the TGI [52]?
Answer: > 100 µM

Question: What about the TGI [53] of the same compound?
Answer: > 100 µM

Question: What about the TGI [54] of the same compound?
Answer: > 100 µM

Question: And the TGI [55]?
Answer: > 100 µM

Question: What about the TGI [56] of the same compound?
Answer: > 100 µM

Question: And the TGI [57]?
Answer: > 100 µM

Question: And the TGI [58]?
Answer: > 100 µM
